This is an account of results in patent publication US20260125346A1, “Isoquinolinone Derivatives and 4H-Quinolizinone Derivatives and Pharmaceutical Compositions Thereof for the Treatment of Disease” (BeOne Medicines I GmbH, priority 2023, published 2026).

Holding throughout (format): cell-based
Assay [1] concerns PI3Kα H1047R mutated cell line T-47D cells. Nature of the assay: Cell Proliferation Assay (CellTiter-Glo), T-47D. The note with it: for IC50: Homo sapiens, T47D, 72 h, T-47D, 3 days treatment; for Selectivity: SK-BR-3/T-47D (cell proliferation): cell proliferation IC50 ratio. A digest of the protocol: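 T-47D cells seeded overnight at 3×10^3/well, then exposed 3 days to 9-point 1:3 dilutions, final […] to 1 nM in 0.1% DMSO. CellTiter-Glo luminescence; relative IC50 from percent inhibition versus medium-only and 0.1% DMSO controls, 4-parameter logistic fit.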
On the technique in general: Cellular ATP, detected with luciferase, serves as a proxy for viable cell number.

The subject of assay [2] is PI3Kα H1047R mutated cell line T-47D. Kind of assay: Phospho-AKT (Ser473) Inhibition Assay (HTRF), T-47D. The note with it: for IC50: Homo sapiens, T47D, T-47D, 1 hour treatment, read-out: p-AKT Inhibition assay (S473) IC50 T-47D; for Selectivity: SK-BR-3/T-47D (p-AKT): p-AKT (S473) IC50 ratio. Put shortly: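 Cells seeded overnight in insulin-supplemented MEM, then treated 1 h with 11-point 1:3 compound dilutions (10 μM to 0.1 nM final, 0.1% DMSO). Lysates assayed for phospho-AKT Ser473 by HTRF; IC50 from 4-parameter logistic fit, normalised to DMSO (max) and 10 μM GDC0077 (min).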
(In general: Time-resolved FRET reads energy transfer from a long-lived donor to a nearby acceptor.)

A further assay relates to WT cell line SK-BR-3. Kind of assay: Phospho-AKT (Ser473) Inhibition Assay (HTRF), SK-BR-3. The note with it: Homo sapiens; SK-BR-3, 1 hour treatment; read-out: p-AKT Inhibition assay (S473) IC50 SK-BR-3. A digest of the protocol:
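SK-BR-3 (PI3Kα WT) cells seeded overnight in MEM with insulin, then treated 1 h with 11-point 1:3 dilutions (10 μM to 0.1 nM, 0.1% DMSO). Lysates read for phospho-AKT Ser473 by HTRF after 4 h antibody incubation at room temperature. IC50 from 4-parameter fit, % inhibition normalized to DMSO (max) and 10 μM GDC0077 (min).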

In the case of `Cc1cc(C(C)Nc2ccccc2C(=O)O)c2cc(-c3ccc(C#N)cc3)n(C)c(=O)c2c1` (centres unmarked) [Example 4, 2-((1-(3-(4-cyanophenyl)-2,7-dimethyl-1-oxo-1,2-dihydroisoquinolin-5-yl)ethyl)amino)benzoic acid], the 50% inhibitory concentration (IC50) in assay [1] was 112 nM; in assay [2], 144 nM; in the assay on WT cell line SK-BR-3 it was over 10000 nM. The “Selectivity: SK-BR-3/T-47D (cell proliferation)” value in assay [1] is given as over 89. The “Selectivity: SK-BR-3/T-47D (p-AKT)” value in assay [2] was over 69.
In the same order, the values of `Cc1cc(C(C)Nc2ccccc2C(=O)O)c2cc(-c3cnn(C)c3)n(C)c(=O)c2c1` (centres unmarked) [Example 91, 2-((1-(2,7-dimethyl-3-(1-methyl-1H-pyrazol-4-yl)-1-oxo-1,2-dihydroisoquinolin-5-yl)ethyl)amino)benzoic acid] are 287 nM, 410 nM, 4730 nM, over 35 and 11.6.
Take `Cc1cc(C(C)Nc2sc3ccccc3c2C(=O)O)c2cc(-c3ccccc3)n(C)c(=O)c2c1` (centres unmarked) [Example 92, 2-((1-(2,7-dimethyl-1-oxo-3-phenyl-1,2-dihydroisoquinolin-5-yl)ethyl)amino)benzo[b]thiophene-3-carboxylic acid]: the results for the IC50 (in assay [1]; in assay [2]; in the assay with WT cell line SK-BR-3) were over 10000 nM, 109 nM and over 10000 nM, respectively. Further, the “Selectivity: SK-BR-3/T-47D (p-AKT)” value in assay [2] is recorded as over 91.

The term IC50 denotes the concentration at which inhibition is half-maximal.
